For data set [1] the following is noted: cited from earlier work.
Data set [2] can be described thus: Serum pharmacokinetics of Ethinylestradiol and Gestodene during two patch treatment cycles. The arrangement: species or system women. The following applies: female, human, in vivo, topical or ocular, 0.9 mg, AUC(0-[…]) of ethinyl estradiol (EE), mean. An excerpt: Arcare MA-24A® is a polyisobutylene based adhesive from Adhesive Research.
The treatment phase includes a period of two menstrual cycles. The first treatment in the first cycle began one day after the volunteers started menstruating in this cycle by application of a patch. A total of three test patches were applied in intervals of 7 days between, such as application at days 1, 8 and 15 of the first cycle—each at different application sites—during each treatment cycle. Each patch was worn for 7 days, then replaced with a new patch to complete a total of 21 days of continuous use. This was followed by a 7-day treatment-free interval before the next treatment period started with a total of three patches applied, each applied with an interval of 7 days. If the patches were lost or became more than 40% detached, a new patch was applied.
The AUC was calculated according to the linear trapezoidal rule.
The sampling points were at the day 18 of the last pre-treatment cycle and days 1, 2, 3, 4, 5, 6, 7, 8, 15, 16, 17, 18, 19, 20, 21 and 22 of cycle 1 as well as days 1 (before application of new patch), 2, 3, 4, 5, 6, 7, 8, 15, 16, 17, 18, 19, 20, 21 and 22 of cycle 2.
After incubation and centrifugation, the resultant precipitate was redissolved with NaOH. The assay has a lower limit of quantification of approx. 250 μg/ml.

`C#C[C@]1(O)C=C[C@H]2[C@@H]3CCC4=CC(=O)CC[C@@H]4[C@H]3CC[C@@]21CC` [Gestodene, 13β-Ethyl-17α-ethynyl-17β-hydroxy-4,15-gonadien-3-one]: the Maximal plasma levels result in data set [1] (U.S. Pat. No. 5,376,377, ethylene vinyl acrylate adhesive layer, Gestodene and ethinylestradiol) is “about 0.8 ng/ml”. Further, in data set [1] (WO 92/07590, transdermal compositions with penetration enhancers), the “maximal plasma levels of Gestodene” value is “about 0.9 ng/ml”.
Consider `C#C[C@]1(O)CC[C@H]2[C@@H]3CCc4cc(O)ccc4[C@H]3CC[C@@]21C` [ethinyl estradiol, Ethinylestradiol], for which the AUC(0-t) in data set [2] (Cycle 1, Week 1, test patch) worked out at 5.3 ng·h/mL; in data set [2] (Cycle 1, Week 3, test patch) it was 6.1 ng·h/mL; in data set [2] (Cycle 2, Week 1, test patch) it was 5.1 ng·h/mL; in data set [2] (Cycle 2, Week 3, test patch), 5.8 ng·h/mL.

The values are drawn from patent US8668925B2, “Transdermal delivery of hormones without the need of penetration enhancers” (Bayer Intellectual Property GmbH, priority 2003, dated 2014).
